Assay results reported in patent EP2045266A1, “Methods for treating and diagnosing a cancer secreting cath-D or Alzheimer's disease” (INSERM (Institut National de la Santé et de la Recherche …, priority 2007, dated 2009).
Non-standard residues stand in square brackets, D forms with d. Residues, ends and D or L forms follow the SMILES beside them. *: point of attachment. Sta = CC(C)C[C@H](N)[C@@H](O)CC(=O)O; Isovaleryl = CC(C)CC(=O)*

How the values were obtained:
pro-cath-D = target: T1, pro-cath-D (Homo sapiens, UniProt P07339); assay: GST pull-down: competition for binding of LRP1β (1-476) to GST-pro-cath-D; settings: radio-labelled LRP1β (1-476), beads with GST-cath-D/52K, increasing concentration of the peptide; Fig. 2C
T1 construct: the 52, 34, 14 and 4 kDa cath-D fragments were expressed as GST fusion proteins; made in house; host or cells: Escherichia coli BL21 (GST fusion)
Method: • (A) Schematic representation of GST-LRP1β fragments. Shorter GST-LRP1β fragments (F4, F6-F8) were derived from GST-LRP1β (307-479) (F0). The F4 (349-394) GST-LRP1β fragment was then sub-divided into shorter fragments (F5, F9-13). • (B) Binding of pro-cath-D to GST-LRP1β fragments. Radio-labelled pro-cath-D was incubated with beads containing GST-LRP1β fragments or GST. GST proteins bound to beads were stained by Coomassie (panels a, c) and bound pro-cath-D was detected by autoradiography (panels b, d). • (C) Effect of the (349-397) LRP1 peptide for the binding of the extracellular domain of LRP1β (1-476) to pro-cath-D. Schematic representation and numbering of the EGF-like repeats 16 to 22 present in the extracellular domain of LRP1β is shown in panel a. Radio-labelled extracellular domain of LRP1β (1-476) was incubated with beads containing GST-cath-D/52K in the absence or presence of increasing concentration of the (349-397) LRP1 peptide (panel b). GST proteins stained by Coomassie are shown in left panel and bound LRP1β (1-476) in right panel .
GST pull-down assays. [^35S]methionine-labelled pro-cath-D or LRP1β(1-476) were obtained by transcription and translation of pcDNA3.1(-)cath-D or pcONA3.1(+)LRP1β extracellular domain(1-476) expression plasmids, respectively, using the TNT^T7-coupled reticulocyte lysate system (Promega). […]

[1] = target: auto-activated pro-cath-D (Homo sapiens, UniProt P07339); assay: Cleavage of the LRP1 [349-397] peptide by auto-activated pro-cath-D (HPLC, NH2-terminal sequencing); assay type: biochemical; settings: pro-cath-D 500 ng auto-activated at pH 3.5 for 30 min, 2 h with 50 µM peptide at pH 3.5
Description: (§1) • (A) Shedding of LRP1 β chain ectodomain. SEAP activity was quantified in the medium of COS cells transiently transfected with SEAP-LRP1β and β-galactosidase vectors in the absence or presence of cath-D vector (panel a). The mean ± SD of 4 independent determinations with both transfections and measurements carried in duplicate is shown *, p<0.0025 versus control (Student's t-test). […] A representative experiment from a transfection performed in duplicate is shown. Similar results were obtained in another independent experiment. • (B) Cleavage of the LRP1 [349-397] peptide by auto-activated pro-cath-D. Pro-cath-D (500 ng), auto-activated at pH 3.5 for 30 min, was incubated for 2 h with 50 µM of LRP1 [349-397] peptide at pH 3.5. Cleaved peptides were resolved by reverse-phase HPLC and subjected to NH2-terminal sequence analysis. Arrows indicate the 3 cleavage sites. • (C) Production of LRP1 β carboxyl-terminal fragment. COS cells, transfected with Myc-LRP1β in the absence or presence of wild-type or D231 N cath-D, were treated with DAPT (1 µM) or DMSO for 24 h. Cells were lysed and the full-length Myc-LRP1β and its carboxy-terminal fragment (LRP1β-CTF) were isolated by immunoprecipitation and visualized by immunoblotting with the monoclonal antibody 11H4. *, p<0.025 versus Luc siRNA HMF cells; **, p<0.0025 versus Luc siRNA HMF cells (Student's t-test).

LRP1β-CTF [2] = assay: Production of LRP1β carboxyl-terminal fragment in COS cells (immunoprecipitation and immunoblotting); assay type: cell-based; settings: COS cells transfected with Myc-LRP1β, DAPT 1 µM for 24 h; Fig. 5C
Description: as §1, with “Cells were lysed and the full-length Myc-LRP1β and its carboxy-terminal fragment (LRP1β-CTF) were isolated by immunoprecipitation and visualized by immunoblotting with the monoclonal antibody 11H4. *, p<0.025 versus Luc siRNA HMF cells; **, p<0.0025 versus Luc siRNA HMF cells (Student's t-test).” left out
(§2) Immunoblotting. […] Equal amounts of protein (100 µg) from cell extracts quantitated by the Bradford assay, or equal volumes (80 µl) of conditioned media, were separated by SDS-PAGE on a 7.5 % gel for anti-LRP1β immunoblotting or on a 12 % gel for anti-cath-D immuno-blotting. […]

LRP1β-CTF [3] = assay: Production of LRP1β-CTF and shedding of LRP1β in HMF fibroblasts; assay type: cell-based, human; settings: DAPT 1 µM, 24 h, Fig. 6B panel a
Method: (§3) • (A) Pro-cath-D is internalized in part by LRP1. Conditioned media containing labelled pro-cath-D was produced by incubating cath-D expressing 3Y1-Ad12 cells with [S^35]methionine and [S^35]cysteine for 24 h. HMF fibroblasts were transiently transfected with either Luc siRNA or LRP1 siRNA1 and endocytosis of labelled pro-cath-D was performed 48 h post-transfection. For endocytosis, siRNAs-transfected HMF fibroblasts were incubated for 3 h (panel a) or for 18h (panel c) with conditioned medium containing labelled pro-cath-D in the absence or presence of 10 mM M6P. Cell lysates containing endocytosed labelled cath-D were analyzed by SDS-PAGE after immunoprecipitation with M1G8 anti-cath-D antibody (panels a and c). LRP1β expression was monitored in HMF fibroblasts by immunoblotting 48 h post-transfection with either Luc or LRP1 siRNAs (panels b and d). ßactin was used as a loading control. […] LRP1β shedded in the media of HMF fibroblasts after 24 h in the presence of DAPT (1 µM) was detected by immmunoblotting with the monoclonal antibody #3501 directed against the extracellular LRP1 β chain (panel b). […]
as §2

HMF fibroblasts = assay: Endocytosis of labelled pro-cath-D in HMF fibroblasts; assay type: cell-based; settings: Homo sapiens, Fibroblast, over 3 h, 10 mM M6P, read-out: inhibition of pro-cath-D internalization
Method: as §3

SEAP-LRP1β = assay: LRP1 ectodomain secretion assay (SEAP activity in the medium); assay type: cell-based; settings: cath-D expressing COS cells, pepstatin 100 µM; Fig. 5A panel b
Description: as §1, with “Cells were lysed and the full-length Myc-LRP1β and its carboxy-terminal fragment (LRP1β-CTF) were isolated by immunoprecipitation and visualized by immunoblotting with the monoclonal antibody 11H4. *, p<0.025 versus Luc siRNA HMF cells; **, p<0.0025 versus Luc siRNA HMF cells (Student's t-test).” left out
LRP1 ectodomain secretion assay. […] SEAP activity was normalized to […] activity measured by hydrolysis of o-nitrophenyl-β-D-galactopyranoside in cells lysed in the reporter lysis buffer (Promega).

T1 sequence (P07339 21-412): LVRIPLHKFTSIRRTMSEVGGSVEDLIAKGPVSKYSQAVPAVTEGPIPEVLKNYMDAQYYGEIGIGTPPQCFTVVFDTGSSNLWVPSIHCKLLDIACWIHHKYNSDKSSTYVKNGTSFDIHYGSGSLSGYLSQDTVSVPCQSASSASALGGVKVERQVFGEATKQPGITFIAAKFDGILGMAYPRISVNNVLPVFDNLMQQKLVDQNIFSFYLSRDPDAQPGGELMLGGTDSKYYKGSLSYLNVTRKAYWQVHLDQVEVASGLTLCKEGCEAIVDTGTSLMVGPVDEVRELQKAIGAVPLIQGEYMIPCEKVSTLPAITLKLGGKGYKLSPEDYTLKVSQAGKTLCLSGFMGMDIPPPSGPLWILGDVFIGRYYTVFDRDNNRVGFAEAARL
Chain of auto-activated pro-cath-D (P07339 65-412): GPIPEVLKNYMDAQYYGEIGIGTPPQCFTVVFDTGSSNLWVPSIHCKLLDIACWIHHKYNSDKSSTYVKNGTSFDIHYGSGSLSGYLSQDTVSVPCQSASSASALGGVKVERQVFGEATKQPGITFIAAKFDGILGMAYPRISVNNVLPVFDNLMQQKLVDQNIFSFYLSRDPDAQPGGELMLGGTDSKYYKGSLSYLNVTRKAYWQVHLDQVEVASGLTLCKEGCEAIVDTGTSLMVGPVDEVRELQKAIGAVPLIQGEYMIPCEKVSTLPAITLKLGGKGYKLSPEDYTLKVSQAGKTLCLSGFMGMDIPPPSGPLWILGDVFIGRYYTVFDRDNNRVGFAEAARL

With “49-mer: polypeptide sequence of 49 amino acids corresponding to the 349-397 fragment of the extra-cellular LRP1 β chain, SEQ ID NO: 5 (CRCLPGFLGDRCQYRQCSGYCENFGTCQMAADGSRQCRCTAYFEGSRCE)” the “competition for the binding of LRP1β (1-476) to GST-pro-cath-D” value (pro-cath-D) was “competed efficiently” and the cleavage sites [1] was 3.

With `C[C@H](NC(=O)Cc1cc(F)cc(F)c1)C(=O)N[C@H](C(=O)OC(C)(C)C)c1ccccc1` [DAPT] the “presence of LRP1β-CTF” value (LRP1β-CTF [2]) was “strong increase” and the “level of membrane bound LRP1β-CTF” value (LRP1β-CTF [3]) was “further increase”.

With `O=C[C@@H](O)[C@@H](O)[C@H](O)[C@H](O)COP(=O)(O)O` [M6P, mannose-6-phosphate] the inhibition at 10000 µM (HMF fibroblasts) was 82%.

With `CC(C)CC(=O)N[C@H](C(=O)N[C@H](C(=O)N[C@@H](CC(C)C)[C@@H](O)CC(=O)N[C@@H](C)C(=O)N[C@@H](CC(C)C)[C@@H](O)CC(=O)O)C(C)C)C(C)C` [pepstatin A] (Isovaleryl-VV[Sta]A[Sta]-OH) the SEAP-LRP1β ectodomain shedding (SEAP-LRP1β) was “prevented”.
